{"source": "patent US4551460A", "about": "“Pyrido[2,1-b]quinazoline derivatives useful as agents for treatment of allergic conditions and vascular disorders involving thrombosis” (priority 1983, dated 1985)", "key": {"[1]": {"system": "platelet activating factor induced platelet aggregation", "assay": "Platelet activating factor induced platelet aggregation in vitro", "assay_type": "cell-based", "details": "racemic platelet activating factor; read-out: PAF (IC50, platelet activating factor induced platelet aggregation)", "protocol": "(§1) (1) Assay for Platelet Aggregation In Vitro\n(§2) The turbidometric method of G. V. R. Born, Nature 194, 927 (1962) is used. Platelet rich plasma (PRP) and platelet poor plasma (PPP) are prepared with 0.38% sodium citrate-treated blood. Speed and time of centrifugation varied with different species; human:160 g for 20 minutes, dog:160 g for 15 minutes, guinea pig and rabbit:160 g for 15 minutes, and rat:230 g for 10 minutes. Aggregation is monitored with a Payton dual channel module or Chronolog lumiaggregometer when the release of ATP is simultaneously measured. 0.45 ml of PRP is added to a cuvette and prewarmed to 37° C. The stimulant (arachidonic acid or synthetic platelet activating factor) is added in volumes of 50 μl; all other agents in 5 μl. Vehicles are added to samples not containing agents. 0 to 100% light transmission is set with PRP and PPP. % aggregation is calculated from the % increase in light transmission at 5 minutes after the addition of the aggregating agent. For inhibition of aggregation studies the inhibitor is added first and preincubated with the platelets for 1 minute with stirring, followed by the stimulant. % inhibition is calculated from the % aggregation with and without the test compound. [formula]"}, "[2]": {"system": "PAF-induced bronchoconstriction", "assay": "Antagonism of PAF-induced bronchoconstriction in the guinea pig", "assay_type": "in vivo, guinea pig (Hartley strain)", "details": "Cavia porcellus, po, 2 hour pretreatment; read-out: ID50 antagonism of PAF-induced bronchoconstriction", "protocol": "(g) Antagonism of PAF and Histamine-induced Bronchoconstriction in Guinea Pig\nSpontaneously breathing male guinea pigs (Hartley strain) weighing 300-450 grams are dosed orally with test drug or control vehicle two hours prior to challenge with agonist. The animals are anesthetized with urethane (2 gm/kg) intraperitoneally and the jugular vein and trachea are cannulated. Two hours after dosing, the animal is paralyzed with succinylcholine (1.2 mg/kg, i.v.) and ventilated (Harvard rodent respirator) at 40 breaths/minutes and 2.5 cc tidal volume. Propranolol (0.1 mg/kg, i.v.) is administered and five minutes thereafter the animal is challenged with a constrictory dose of platelet activating factor (10 μg/kg, i.v.) or histamine dihydrochloride (20 μg/kg, i.v.). The change (cm H2 O) between pre and peak ventilatory pressure readings is averaged for three control animals and five drug treated animals. The percent inhibition is calculated from the following formula: (Control-Drug Treated/Control)×100."}, "[3]": {"system": "arachidonic acid induced platelet aggregation", "assay": "Arachidonic acid induced platelet aggregation in vitro", "assay_type": "cell-based", "details": "read-out: AA (IC50, arachidonic acid induced platelet aggregation)", "protocol": "as §1, §2"}, "[4]": {"target": "T1, TXA2 synthase in human platelet microsomes (Homo sapiens, UniProt P24557)", "T1 construct": "using microsomal fractions from human platelets as enzyme source; from tissue; host or cells: human platelets, microsomal fraction", "T1 sequence (P24557 1-533)": "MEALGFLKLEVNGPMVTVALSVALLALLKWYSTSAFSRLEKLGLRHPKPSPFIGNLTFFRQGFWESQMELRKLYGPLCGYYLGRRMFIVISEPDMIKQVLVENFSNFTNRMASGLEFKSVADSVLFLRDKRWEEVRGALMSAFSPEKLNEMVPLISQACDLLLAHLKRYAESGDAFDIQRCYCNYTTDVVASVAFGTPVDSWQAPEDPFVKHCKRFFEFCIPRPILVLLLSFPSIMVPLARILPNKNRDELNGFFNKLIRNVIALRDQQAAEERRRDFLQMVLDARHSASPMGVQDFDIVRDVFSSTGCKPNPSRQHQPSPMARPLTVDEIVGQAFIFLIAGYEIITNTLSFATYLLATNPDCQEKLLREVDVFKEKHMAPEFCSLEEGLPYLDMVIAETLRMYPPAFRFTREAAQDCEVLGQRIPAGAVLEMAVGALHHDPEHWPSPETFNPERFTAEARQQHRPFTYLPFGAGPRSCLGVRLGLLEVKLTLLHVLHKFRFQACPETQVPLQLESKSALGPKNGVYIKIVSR", "assay": "Thromboxane synthase (TXA2 syn.) inhibitory activity", "assay_type": "biochemical", "details": "10 μM PGH2", "protocol": "(d) Assay for Thromboxane Synthase (TXA2 Syn.) Inhibitory Activity\nTXA2 syn. activity is measured by following the conversion of ^14 C-prostaglandin endoperoxide (PGH2) to ^14 C-thromboxane A2 (TXA2) using microsomal fractions from human platelets as enzyme source. In the aqueous incubation medium, the TXA2 decomposes rapidly into TXB2. The amount of TXA2 syn. is adjusted so that under the conditions of the assay approximately 80-90% of the substrate, PGH2, is converted to product in control tubes. To prepare ^14 C-PGH2, ^14 C-AA (50-60 mCi/mmole; Rose Chem.) is incubated with sheep seminal vesicular gland microsomes for 1.5 min at 37° and then the ^14 C-PGH2 is extracted with diethylether, purified on columns of Sephadex LH-20 or silicic acid, and stored in acetone at -70° C. Incubations are done as follows. Sufficient ^14 C-PGH2 to yield a final substrate concentration of 10 μM (~30,000 cpm) is added to the incubation tubes and then the acetone is removed under nitrogen. The tubes are placed in an ice bath and then 215 μl of ice cold phosphate buffered saline, 10 μl of ethanol (control) or of test drug in ethanol, and 25 μl of the microsomal suspension are added with mixing in that order as rapidly as possible. The tubes are incubated at 22° for 2 minutes, the reaction is stopped and then the radioactive products and the uncoverted PGH2 are extracted and analyzed by thin layer chromatography. […] The amount of ^14 C-PGH2 converted to products was used as a measure of TXA2 synthase activity. Inhibitors were tested initially at a final concentration of 100 μM."}, "[5]": {"system": "KCl-induced constriction in guinea pig ilea", "assay": "Antagonism of KCl-induced constriction in guinea pig ilea", "protocol": "(h) Antagonism of KCl-induced Constriction in Guinea Pig Ilea\nA 1-1.5 cm segment of guinea pig ileum removed from animals weighing 200-250 g is suspended in an organ bath containing 10 ml of Tyrodes solution with 10^-6 M atropine sulfate and 10^-6 M pyrilamine maleate. The bath is maintained at 37° C. and aerated with a mixture of 95% O2 and 5% CO2. KCl induces isometric constrictions of the ileum at concentrations between 10-30mM. The contractions consist of two phases, an initial fast contraction (the phasic portion), followed by a relaxation down to less intense but more prolonged contraction (the tonic phase). Varying concentrations of test drugs are incubated with the ileum for three minutes prior to KCl-challenge. The drug concentrations, which inhibit by 50% the phasic and tonic portion of the KCl-induced constrictions, are determined (IC50 's)."}, "[6]": {"details": "phasic, read-out: IC50 antagonism of KCl-induced constriction (phasic)"}, "[7]": {"details": "tonic, read-out: IC50 antagonism of KCl-induced constriction (tonic)"}}, "note": "Where two headings read alike, the source gives them in different places.", "data": [{"smiles": "CC(C)c1ccc2nc3ccc(C(=O)NCCCCn4ccnc4)cn3c(=O)c2c1", "note": "[Compound A, N-[4-(1H-imidazol-1-yl)butyl]-2-(1-methylethyl)-11-oxo-11H-pyrido[2,1-b]quinazoline-8-carboxamide]", "values": [{"measurement": "IC50", "setting": "[1]", "result": "> 10", "unit": "µM"}, {"measurement": "ED50", "setting": "[2]", "result": 13, "unit": "mg/kg"}, {"measurement": "IC50", "setting": "[3]", "result": "< 10", "unit": "µM"}, {"measurement": "IC50", "setting": "[4]", "result": "0.1 to 1", "unit": "µM"}, {"measurement": "IC50", "setting": "[5]; [6]", "result": 17, "unit": "µM"}, {"measurement": "IC50", "setting": "[5]; [7]", "result": 10, "unit": "µM"}]}, {"smiles": "CC(C)c1ccc2nc3ccc(C(=O)NCCCCc4cccnc4)cn3c(=O)c2c1", "note": "[Compound B, 2-(1-methylethyl)-N-[4-(3-pyridyl)butyl]-11-oxo-11H-pyrido[2,1-b]quinazoline-8-carboxamide]", "values": [{"measurement": "IC50", "setting": "[1]", "result": "< 10", "unit": "µM"}, {"measurement": "ED50", "setting": "[2]", "result": 100, "unit": "mg/kg"}, {"measurement": "IC50", "setting": "[3]", "result": "< 10", "unit": "µM"}, {"measurement": "IC50", "setting": "[4]", "result": "0.1 to 1", "unit": "µM"}, {"measurement": "IC50", "setting": "[5]; [6]", "result": 13, "unit": "µM"}, {"measurement": "IC50", "setting": "[5]; [7]", "result": 8, "unit": "µM"}]}, {"smiles": "CC(C)c1ccc2nc3ccc(C(=O)NCCCCCCc4cccnc4)cn3c(=O)c2c1", "note": "[Compound C, 2-(1-Methylethyl)-N-[6-(3-pyridyl)hexyl]-11-oxo-11H-pyrido[2,1-b]quinazoline-8-carboxamide]", "values": [{"measurement": "IC50", "setting": "[1]", "result": "< 10", "unit": "µM"}, {"measurement": "ED50", "setting": "[2]", "result": 50, "unit": "mg/kg"}, {"measurement": "IC50", "setting": "[3]", "result": "< 10", "unit": "µM"}, {"measurement": "IC50", "setting": "[4]", "result": 0.1, "unit": "µM"}, {"measurement": "IC50", "setting": "[5]; [6]", "result": 5.4, "unit": "µM"}, {"measurement": "IC50", "setting": "[5]; [7]", "result": 2.4, "unit": "µM"}]}]}
